Measured values taken from patent US9346815B2, “5-chloro-2-difluoromethoxyphenyl pyrazolopyrimidine compounds, compositions and methods of use thereof” (Genentech, Inc., priority 2014, dated 2016).
Counter-ions that a name gives are not always drawn.

What was measured:
[1] = biological target: isolated recombinant JAK2 kinase domain (Homo sapiens (Human), UniProt O60674); test: JAK2 enzyme assay (Caliper LabChip, peptide phosphorylation); format: biochemical; conditions: 25 μM ATP
[2] = biological target: isolated recombinant JAK1 kinase domain (Homo sapiens (Human), UniProt P23458); test: JAK1 enzyme assay (Caliper LabChip, peptide phosphorylation); format: biochemical; conditions: isolated recombinant JAK1 kinase domain, 25 μM ATP
[3] = test system: JAK1-dependent STAT6 phosphorylation downstream of IL-13 stimulation in TF-1 human erythroleukemia cells; test: JAK1 pathway assay in TF-1 cells (IL-13-pSTAT6, MSD); format: cell-based; conditions: Homo sapiens, TF-1, TF-1 cells, read-out: IL13-pSTAT6 EC50_TF-1
How it was run: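 TF-1 cells starved of GM-CSF overnight, assayed serum-free; BEAS-2B cells in complete growth medium. Lysate pSTAT6 measured by MSD; EC50 derived.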

isolated recombinant JAK1 kinase domain, sequence (P23458 875-1153): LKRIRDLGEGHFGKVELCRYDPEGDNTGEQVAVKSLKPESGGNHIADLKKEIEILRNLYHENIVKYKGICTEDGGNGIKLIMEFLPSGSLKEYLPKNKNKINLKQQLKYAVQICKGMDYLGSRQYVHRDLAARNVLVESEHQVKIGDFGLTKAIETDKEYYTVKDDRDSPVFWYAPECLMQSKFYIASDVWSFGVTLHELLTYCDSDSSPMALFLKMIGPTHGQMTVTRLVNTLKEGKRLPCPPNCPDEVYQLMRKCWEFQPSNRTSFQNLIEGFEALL
isolated recombinant JAK2 kinase domain, sequence (O60674 849-1124): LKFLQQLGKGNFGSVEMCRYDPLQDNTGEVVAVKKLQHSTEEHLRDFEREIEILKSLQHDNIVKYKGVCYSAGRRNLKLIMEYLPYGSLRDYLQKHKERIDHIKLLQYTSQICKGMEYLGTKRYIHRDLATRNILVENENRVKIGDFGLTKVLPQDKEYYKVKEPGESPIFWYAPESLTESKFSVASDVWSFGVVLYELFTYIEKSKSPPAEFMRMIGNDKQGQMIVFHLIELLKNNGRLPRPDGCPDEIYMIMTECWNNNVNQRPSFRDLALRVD

| SMILES | Ki [1] [nM] | Ki [2] [nM] | EC50 [3] [nM] |
| --- | --- | --- | --- |
| CCN1CC2CN(C(=O)Cn3cc(NC(=O)c4c(N)nn5cccnc45)c(-c4cc(Cl)ccc4OC(F)F)n3)CC2C1 (stereo not drawn) [Example 11, 2-amino-N-[3-[5-chloro-2-(difluoromethoxy)phenyl]-1-[2-(2-ethyl-1,3,3a,4,6,6a-hexahydropyrrolo[3,4-c]pyrrol-5-yl)-2-oxo-ethyl]pyrazol-4-yl]pyrazolo[1,5-a]pyrimidine-3-carboxamide] | 0.3 | 1.05 | 11.8 |
| CCNC1CCN(C(=O)Cn2cc(NC(=O)c3c(N)nn4cccnc34)c(-c3cc(Cl)ccc3OC(F)F)n2)CC1 [Example 75, 2-amino-N-[3-[5-chloro-2-(difluoromethoxy)phenyl]-1-[2-[4-(ethylamino)-1-piperidyl]-2-oxo-ethyl]pyrazol-4-yl]pyrazolo[1,5-a]pyrimidine-3-carboxamide] | 0.61 | 0.66 | 78.7 |
| CN1C[C@@H]2CN(C(=O)Cn3cc(NC(=O)c4cnn5ccc(N)nc45)c(-c4cc(Cl)ccc4OC(F)F)n3)C[C@@H]2C1 [Example 7, 5-Amino-pyrazolo[1,5-a]pyrimidine-3-carboxylic acid {3-(5-chloro-2-difluoromethoxy-phenyl)-1-[2-((3aR,6aS)-5-methyl-hexahydro-pyrrolo[3,4-c]pyrrol-2-yl)-2-oxo-ethyl]-1H-pyrazol-4-yl}-amide hydrochloride] | 0.96 | 1.1 | 1040 |
| Nc1nn2cccnc2c1C(=O)Nc1cn(C2CCN(CCCC(=O)N3CCCCC3)CC2)nc1-c1cc(Cl)ccc1OC(F)F [Example 143, 2-amino-N-[3-[5-chloro-2-(difluoromethoxy)phenyl]-1-[1-[4-oxo-4-(1-piperidyl)butyl]-4-piperidyl]pyrazol-4-yl]pyrazolo[1,5-a]pyrimidine-3-carboxamide] | 0.18 | 0.76 | 20.4 |
| O=C(Nc1cn(CC(=O)N2C[C@H]3CN(CCCN4CCCC4=O)C[C@H]3C2)nc1-c1cc(Cl)ccc1OC(F)F)c1cnn2cccnc12 [Example 18, N-[1-[2-[(3aR,6aS)-2-[3-(2-oxopyrrolidin-1-yl)propyl]-1,3,3a,4,6,6a-hexahydropyrrolo[3,4-c]pyrrol-5-yl]-2-oxo-ethyl]-3-[5-chloro-2-(difluoromethoxy)phenyl]pyrazol-4-yl]pyrazolo[1,5-a]pyrimidine-3-carboxamide] | 0.56 | 0.56 | 274 |
| O=C(Nc1cn(C2CCN(CCCN3CCCC3=O)CC2)nc1-c1cc(Cl)ccc1OC(F)F)c1cnn2cccnc12 [Example 155, N-[3-[5-chloro-2-(difluoromethoxy)phenyl]-1-[1-[3-(2-oxopyrrolidin-1-yl)propyl]-4-piperidyl]pyrazol-4-yl]pyrazolo[1,5-a]pyrimidine-3-carboxamide] | 0.24 | 1.56 | 5.1 |
| O=C(Nc1cn(CC(=O)N2CCC(N(CCc3ccccc3)CC(F)(F)F)CC2)nc1-c1cc(Cl)ccc1OC(F)F)c1cnn2cccnc12 [Example 103, N-[3-[5-chloro-2-(difluoromethoxy)phenyl]-1-[2-oxo-2-[4-[2-phenylethyl(2,2,2-trifluoroethyl)amino]-1-piperidyl]ethyl]pyrazol-4-yl]pyrazolo[1,5-a]pyrimidine-3-carboxamide] | 7.95 | 3.98 | 265 |
| CN1CC[C@@H]2CN(C(=O)Cn3cc(NC(=O)c4cnn5cccnc45)c(-c4cc(Cl)ccc4OC(F)F)n3)C[C@@H]2C1 [Example 49, N-[1-[2-[(3aS,7aS)-5-methyl-3,3a,4,6,7,7a-hexahydro-1H-pyrrolo[3,4-c]pyridin-2-yl]-2-oxo-ethyl]-3-[5-chloro-2-(difluoromethoxy)phenyl]pyrazol-4-yl]pyrazolo[1,5-a]pyrimidine-3-carboxamide] | 0.96 | 0.5 | 11.3 |
| CCCCN(CCOc1ccc(C)cc1)C1CCN(C(=O)Cn2cc(NC(=O)c3cnn4cccnc34)c(-c3cc(Cl)ccc3OC(F)F)n2)CC1 [Example 108, N-[1-[2-[4-[butyl-[2-(4-methylphenoxy)ethyl]amino]-1-piperidyl]-2-oxo-ethyl]-3-[5-chloro-2-(difluoromethoxy)phenyl]pyrazol-4-yl]pyrazolo[1,5-a]pyrimidine-3-carboxamide] | 3.66 | 2.47 | 43.1 |
| O=C(Nc1cn(CC(=O)N2C[C@H]3CN(CCCOC(=O)N4CCOCC4)C[C@H]3C2)nc1-c1cc(Cl)ccc1OC(F)F)c1cnn2cccnc12 [Example 51, 3-[(3aR,6aS)-5-[2-[3-[5-chloro-2-(difluoromethoxy)phenyl]-4-(pyrazolo[1,5-a]pyrimidine-3-carbonylamino)pyrazol-1-yl]acetyl]-1,3,3a,4,6,6a-hexahydropyrrolo[3,4-c]pyrrol-2-yl]propyl morpholine-4-carboxylate] | 1.06 | 1.09 | 77.9 |
| O=C(Nc1cn(CC(=O)N2C[C@@H]3CN(C(=O)OCCCO)C[C@@H]3C2)nc1-c1cc(Cl)ccc1OC(F)F)c1cnn2cccnc12 [Example 15, 3-hydroxypropyl (3aR,6aS)-2-[2-[3-[5-chloro-2-(difluoromethoxy)phenyl]-4-(pyrazolo[1,5-a]pyrimidine-3-carbonylamino)pyrazol-1-yl]acetyl]-1,3,3a,4,6,6a-hexahydropyrrolo[3,4-c]pyrrole-5-carboxylate] | 0.93 | 0.53 | 334 |
| CN(C)C[C@@H]1CCCN(C(=O)Cn2cc(NC(=O)c3cnn4cccnc34)c(-c3cc(Cl)ccc3OC(F)F)n2)C1 [Example 72, N-[3-[5-chloro-2-(difluoromethoxy)phenyl]-1-[2-[(3S)-3-[(dimethylamino)methyl]-1-piperidyl]-2-oxo-ethyl]pyrazol-4-yl]pyrazolo[1,5-a]pyrimidine-3-carboxamide] | 4.07 | 1.17 | 7.2 |
| O=C(Nc1cn(CC(=O)N2CCC(NC3CCC3)CC2)nc1-c1cc(Cl)ccc1OC(F)F)c1cnn2cccnc12 [Example 84, N-[3-[5-chloro-2-(difluoromethoxy)phenyl]-1-[2-[4-(cyclobutylamino)-1-piperidyl]-2-oxo-ethyl]pyrazol-4-yl]pyrazolo[1,5-a]pyrimidine-3-carboxamide] | 1.47 | 0.91 | 24.6 |

Continued, values first:

| Ki [1] [nM] | Ki [2] [nM] | EC50 [3] [nM] | SMILES |
| --- | --- | --- | --- |
| 2.71 | 1.22 | 1170 | O=C(Nc1cn(CC(=O)N2CC3(CCNC3)C2)nc1-c1cc(Cl)ccc1OC(F)F)c1cnn2cccnc12 [Example 220, N-[3-[5-chloro-2-(difluoromethoxy)phenyl]-1-[2-(2,7-diazaspiro[3.4]octan-2-yl)-2-oxo-ethyl]pyrazol-4-yl]pyrazolo[1,5-a]pyrimidine-3-carboxamide] |
| 0.19 | 1.53 | 31.8 | CCNC(=O)CCCN1CCC(n2cc(NC(=O)c3cnn4cccnc34)c(-c3cc(Cl)ccc3OC(F)F)n2)CC1 [Example 156, N-[3-[5-chloro-2-(difluoromethoxy)phenyl]-1-[1-[4-(ethylamino)-4-oxo-butyl]-4-piperidyl]pyrazol-4-yl]pyrazolo[1,5-a]pyrimidine-3-carboxamide] |
| 0.29 | 1.47 | 7.7 | CNC(=O)CCCN1CCC(n2cc(NC(=O)c3cnn4cccnc34)c(-c3cc(Cl)ccc3OC(F)F)n2)CC1 [Example 168, N-[3-[5-chloro-2-(difluoromethoxy)phenyl]-1-[1-[4-(methylamino)-4-oxo-butyl]-4-piperidyl]pyrazol-4-yl]pyrazolo[1,5-a]pyrimidine-3-carboxamide] |
| 0.19 | 0.69 | 7.3 | Nc1nn2cccnc2c1C(=O)Nc1cn(C2CCN(CCCN3CCNC3=O)CC2)nc1-c1cc(Cl)ccc1OC(F)F [Example 163, 2-amino-N-[3-[5-chloro-2-(difluoromethoxy)phenyl]-1-[1-[3-(2-oxoimidazolidin-1-yl)propyl]-4-piperidyl]pyrazol-4-yl]pyrazolo[1,5-a]pyrimidine-3-carboxamide] |
| 0.26 | 0.91 | 22.9 | Nc1nn2cccnc2c1C(=O)Nc1cn(C2CCN(CCCN3CCN(Cc4ccccc4)C3=O)CC2)nc1-c1cc(Cl)ccc1OC(F)F [Example 166, 2-amino-N-[1-[1-[3-(3-benzyl-2-oxo-imidazolidin-1-yl)propyl]-4-piperidyl]-3-[5-chloro-2-(difluoromethoxy)phenyl]pyrazol-4-yl]pyrazolo[1,5-a]pyrimidine-3-carboxamide] |
| 1.38 | 1.1 | 20.9 | CN1CCC2(C1)CN(C(=O)Cn1cc(NC(=O)c3cnn4cccnc34)c(-c3cc(Cl)ccc3OC(F)F)n1)C2 [Example 211, Pyrazolo[1,5-a]pyrimidine-3-carboxylic acid {3-(5-chloro-2-difluoromethoxyphenyl)-1-[2-(6-methyl-2,6-diazaspiro[3.4]oct-2-yl)-2-oxoethyl]-1H-pyrazol-4-yl}amide] |
| 1.08 | 1.38 | 33.5 | O=C(Nc1sc(N2CCN(CC(F)(F)F)CC2)nc1-c1cc(Cl)ccc1OC(F)F)c1cnn2cccnc12 [Example 208, N-[4-[5-chloro-2-(difluoromethoxy)phenyl]-2-[4-(2,2,2-trifluoroethyl)piperazin-1-yl]thiazol-5-yl]pyrazolo[1,5-a]pyrimidine-3-carboxamide] |
| 4.29 | 3.63 | 22.8 | CN(C)C1CCN(C(=O)c2nc(-c3cc(Cl)ccc3OC(F)F)c(NC(=O)c3cnn4cccnc34)s2)CC1 [Example 265, N-[4-[5-chloro-2-(difluoromethoxy)phenyl]-2-[4-(dimethylamino)piperidine-1-carbonyl]thiazol-5-yl]pyrazolo[1,5-a]pyrimidine-3-carboxamide] |
